Experimental data taken from patent US5340818A, “Methods and compositions for inhibiting tumor cell growth” (priority 1993, dated 1994).
Where “and” joins values, the source holds several entries; their conditions need not be identical. Equal values may be shown once. Read-outs that look alike come from different tables or passages of the source.

Legend:
DNA = settings: cited from earlier work
AKR leukemia = settings: ip, 28 × 1 × 10 mg/kg/day; cited from earlier work
[1] = system: Ridgeway osteogenic sarcoma; settings: ip, 48 × 1 × 9 mg/kg/day; cited from earlier work
Shionogi carcinoma 115 = settings: ip, 36 × 1 × 9 mg/kg/day; cited from earlier work
Adrenocarcinoma 755 = settings: ip, 30 × 1 × 10 mg/kg/day; cited from earlier work
Mecca lymphosarcoma = settings: ip, 30 × 1 × 10 mg/kg/day; cited from earlier work
X5563 myeloma = settings: ip, 30 × 1 × 8 mg/kg/day; cited from earlier work
C1498 leukemia = settings: ip, 28 × 1 × 10 mg/kg/day; cited from earlier work
L5178Y cells = settings: cultured L5178Y cells; cited from earlier work
Sarcoma 180 = settings: ip, 30 × 1 × 10 mg/kg/day; cited from earlier work
S91 melanoma = settings: ip, 36 × 1 × 9 mg/kg/day; cited from earlier work
P1534 leukemia = settings: ip, 30 × 1 × 10 mg/kg/day; cited from earlier work
B82 leukemia = settings: ip, 37.5 × 1 × 7 mg/kg/day; cited from earlier work
L5178Y leukemia = settings: ip, 28 × 1 × 10 mg/kg/day; cited from earlier work
tumors = settings: literature, cited from earlier work
L1210 leukemia = L1210 leukemia survival time evaluation in BDF1 mice; settings: for Day 6 AWC / MST / N/T (nine day survivors/total mice) / Survival Time, individual mice / % ILS (increase in lifespan): day 1, QDX4 ip; for % ILS (increase in lifespan): 25% or greater indicates activity
L1210/Dx cells = assay: Cross-resistance studies: growth inhibition of doxorubicin-resistant L1210/Dx cells; type: cell-based
BREI = assay: Survival time evaluation, BREI (ip) in BDF1 mice; type: in vivo, mouse; design: Survival Time, individual mice / AST: unit not given here; settings: for AST / Day 7 AWC / N/T (15 day survivors/total mice) / Survival Time, individual mice / % ILS: day 1, QDX4; for % ILS: 25% or greater indicates activity
Description: 0.2 ML BREI (ip) ca. 10 6 cells IN BDF1 (FEMALE) 19-21 g
DILUENT - COCKTAIL DIL 1:10 dextrose
SCHEDULE - DAY 1, QDX4 bid (ip) DAY 1, QDX4 per os

In the case of COc1cc2c(c3c1c(=O)c1ccccc1n3C)C=CC(C)(C)O2 [Compound 1, Acronycine], the “interaction with DNA, in words” value (DNA) is listed as “did not interact with DNA”, the Percent activity (AKR leukemia) is listed as 78(5) Percent and the Percent activity [1] is listed as 100(10) Percent. The Percent activity (Shionogi carcinoma 115) was 100(7) Percent, the Percent activity (Adrenocarcinoma 755) was 40(10) Percent and the Percent activity (Mecca lymphosarcoma) was 63(7) Percent. The Percent activity (X5563 myeloma) was 100(8) Percent, the Percent activity (C1498 leukemia) was 79(7) Percent and the “inhibition of incorporation of extracellular nucleosides into DNA and RNA, in words” value (L5178Y cells) was “inhibit the incorporation of extracellular nuclosides into the DNA and RNA”. For the same compound, the Percent activity (Sarcoma 180) was 40(9) Percent, the Percent activity (S91 melanoma) was 100(4) Percent and the Percent activity (P1534 leukemia) was 0%. The Percent activity (B82 leukemia) was 61%, the Percent activity (L5178Y leukemia) was 62% and the “antitumor activity, in words” value (tumors) was “broad spectrum of antitumor activity”. The “antitumor activity, in words” value (tumors; listed as acronycine) was “effective against a wide range of neoplasms”.

In the case of COc1c(OC)c(OC)c2c(c1O)c(=O)c1ccc(O)c(OC)c1n2C [Compound 31, Glyfoline], the “Day 6 AWC” value (L1210 leukemia; 6.25 mg/kg) is reported as “+1.8 g”, the MST (L1210 leukemia; 6.25 mg/kg) is reported as 7.0 and the “N/T (nine day survivors/total mice)” value (L1210 leukemia; 6.25 mg/kg) is reported as 0/2. The “Survival Time, individual mice” value (L1210 leukemia; 6.25 mg/kg) was 7, the “% ILS (increase in lifespan)” value (L1210 leukemia; 6.25 mg/kg) was 0% and the “Day 6 AWC” value (L1210 leukemia; 12.5 mg/kg) was “+2.0 g”. For the same compound, the MST (L1210 leukemia; 12.5 mg/kg) was 8.0, the “N/T (nine day survivors/total mice)” value (L1210 leukemia; 12.5 mg/kg) was 0/2 and the “Survival Time, individual mice” value (L1210 leukemia; 12.5 mg/kg) was 8. The “% ILS (increase in lifespan)” value (L1210 leukemia; 12.5 mg/kg) was 14%, the “antileukemic activity, in words” value (L1210 leukemia; L1210, BDF mice, low doses, ip) was “some activity” and the “(IC50) 0/(IC50) Dx” value (L1210/Dx cells; L1210/0 and L1210/Dx) was 1.58. The IC50 (L1210/Dx cells; Mus musculus, L1210/Dx (doxorubicin resistant)) was 3.31 µM, the AST (BREI; 100 mg/kg bid ip) was 14.2 and the “Day 7 AWC” value (BREI; 100 mg/kg bid ip) was “+1.0 g”. The “N/T (15 day survivors/total mice)” value (BREI; 100 mg/kg bid ip) was 0/5, the “Survival Time, individual mice” value (BREI; 100 mg/kg bid ip) was 13 and 14 and 17 and the “% ILS” value (BREI; 100 mg/kg bid ip) was 18%. The AST (BREI; 500 mg/kg p.o.) was greater than 19, the “Day 7 AWC” value (BREI; 500 mg/kg p.o.) was “+0.8 g” and the “N/T (15 day survivors/total mice)” value (BREI; 500 mg/kg p.o.) was 1/5. The “Survival Time, individual mice” value (BREI; 500 mg/kg p.o.) was 13 and 14 and 15 and > 40, the “% ILS” value (BREI; 500 mg/kg p.o.) was greater than 62% and the “tumorfree survival (one mouse)” value (BREI; oral route) was greater than 40 days.
